Results taken from patent US8022206B2 (OSI Pharmaceuticals, LLC, priority 2008, dated 2011).

What was measured:
MET (human) = MET (human) (Homo sapiens, UniProt P08581); assay: MET (human) AlphaScreen kinase assay, Km of ATP; format: biochemical; conditions: AlphaScreen, Km of ATP; read-out: Met biochemical IC50
How it was run: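 Human MET at lot-optimised concentration in 50 mM Tris pH 7.4 buffer with 1 mM DTT, compound at 1% DMSO final; enzyme starts the reaction, 60 min at RT.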

RON (human) = RON (human) (Homo sapiens, UniProt Q04912); assay: RON (human) AlphaScreen kinase assay, Km of ATP; format: biochemical; conditions: AlphaScreen, Km of ATP; read-out: RON biochemical IC50
How it was run: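 Detection used PT66 AlphaScreen beads added in Tris pH 7.5/NaCl/EDTA/BSA buffer, read after 1 h incubation. Vehicle-only DMSO wells served as controls.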

Chain of MET (human) (P08581 25-1390): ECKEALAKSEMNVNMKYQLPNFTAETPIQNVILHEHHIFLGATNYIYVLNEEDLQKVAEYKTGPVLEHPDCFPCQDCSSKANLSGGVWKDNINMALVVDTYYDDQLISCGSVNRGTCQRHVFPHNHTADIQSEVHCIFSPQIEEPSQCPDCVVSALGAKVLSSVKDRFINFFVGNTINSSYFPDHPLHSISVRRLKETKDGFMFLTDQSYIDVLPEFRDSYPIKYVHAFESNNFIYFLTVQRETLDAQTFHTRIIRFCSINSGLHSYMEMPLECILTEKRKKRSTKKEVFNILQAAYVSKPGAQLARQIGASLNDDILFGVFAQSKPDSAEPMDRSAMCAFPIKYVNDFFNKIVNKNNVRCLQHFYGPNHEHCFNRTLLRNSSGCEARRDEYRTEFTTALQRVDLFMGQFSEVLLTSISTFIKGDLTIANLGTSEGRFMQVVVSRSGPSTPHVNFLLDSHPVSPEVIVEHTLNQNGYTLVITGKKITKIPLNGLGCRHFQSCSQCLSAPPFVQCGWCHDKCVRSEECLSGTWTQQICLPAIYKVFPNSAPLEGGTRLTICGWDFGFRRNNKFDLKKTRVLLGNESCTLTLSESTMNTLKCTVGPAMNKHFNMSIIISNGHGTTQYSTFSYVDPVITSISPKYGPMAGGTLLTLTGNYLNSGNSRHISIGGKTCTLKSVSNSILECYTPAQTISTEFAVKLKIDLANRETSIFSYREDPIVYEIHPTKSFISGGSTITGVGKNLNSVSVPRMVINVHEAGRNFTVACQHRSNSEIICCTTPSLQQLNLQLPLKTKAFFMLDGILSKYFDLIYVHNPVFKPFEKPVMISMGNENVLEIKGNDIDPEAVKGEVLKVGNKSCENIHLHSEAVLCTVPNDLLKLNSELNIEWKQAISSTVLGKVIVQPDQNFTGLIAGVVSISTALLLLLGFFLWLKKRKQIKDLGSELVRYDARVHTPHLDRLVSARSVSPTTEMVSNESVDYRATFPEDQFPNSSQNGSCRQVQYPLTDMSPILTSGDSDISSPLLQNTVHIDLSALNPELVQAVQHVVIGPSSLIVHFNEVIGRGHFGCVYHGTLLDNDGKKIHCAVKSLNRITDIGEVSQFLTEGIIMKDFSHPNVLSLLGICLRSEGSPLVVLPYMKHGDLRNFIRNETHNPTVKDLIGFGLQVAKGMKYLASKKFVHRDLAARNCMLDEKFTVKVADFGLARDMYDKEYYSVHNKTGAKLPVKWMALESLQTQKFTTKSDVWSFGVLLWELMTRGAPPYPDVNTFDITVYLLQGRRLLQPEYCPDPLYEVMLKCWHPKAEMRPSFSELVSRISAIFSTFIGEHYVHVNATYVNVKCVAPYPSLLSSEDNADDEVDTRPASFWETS
Chain of RON (human) (Q04912 25-1400): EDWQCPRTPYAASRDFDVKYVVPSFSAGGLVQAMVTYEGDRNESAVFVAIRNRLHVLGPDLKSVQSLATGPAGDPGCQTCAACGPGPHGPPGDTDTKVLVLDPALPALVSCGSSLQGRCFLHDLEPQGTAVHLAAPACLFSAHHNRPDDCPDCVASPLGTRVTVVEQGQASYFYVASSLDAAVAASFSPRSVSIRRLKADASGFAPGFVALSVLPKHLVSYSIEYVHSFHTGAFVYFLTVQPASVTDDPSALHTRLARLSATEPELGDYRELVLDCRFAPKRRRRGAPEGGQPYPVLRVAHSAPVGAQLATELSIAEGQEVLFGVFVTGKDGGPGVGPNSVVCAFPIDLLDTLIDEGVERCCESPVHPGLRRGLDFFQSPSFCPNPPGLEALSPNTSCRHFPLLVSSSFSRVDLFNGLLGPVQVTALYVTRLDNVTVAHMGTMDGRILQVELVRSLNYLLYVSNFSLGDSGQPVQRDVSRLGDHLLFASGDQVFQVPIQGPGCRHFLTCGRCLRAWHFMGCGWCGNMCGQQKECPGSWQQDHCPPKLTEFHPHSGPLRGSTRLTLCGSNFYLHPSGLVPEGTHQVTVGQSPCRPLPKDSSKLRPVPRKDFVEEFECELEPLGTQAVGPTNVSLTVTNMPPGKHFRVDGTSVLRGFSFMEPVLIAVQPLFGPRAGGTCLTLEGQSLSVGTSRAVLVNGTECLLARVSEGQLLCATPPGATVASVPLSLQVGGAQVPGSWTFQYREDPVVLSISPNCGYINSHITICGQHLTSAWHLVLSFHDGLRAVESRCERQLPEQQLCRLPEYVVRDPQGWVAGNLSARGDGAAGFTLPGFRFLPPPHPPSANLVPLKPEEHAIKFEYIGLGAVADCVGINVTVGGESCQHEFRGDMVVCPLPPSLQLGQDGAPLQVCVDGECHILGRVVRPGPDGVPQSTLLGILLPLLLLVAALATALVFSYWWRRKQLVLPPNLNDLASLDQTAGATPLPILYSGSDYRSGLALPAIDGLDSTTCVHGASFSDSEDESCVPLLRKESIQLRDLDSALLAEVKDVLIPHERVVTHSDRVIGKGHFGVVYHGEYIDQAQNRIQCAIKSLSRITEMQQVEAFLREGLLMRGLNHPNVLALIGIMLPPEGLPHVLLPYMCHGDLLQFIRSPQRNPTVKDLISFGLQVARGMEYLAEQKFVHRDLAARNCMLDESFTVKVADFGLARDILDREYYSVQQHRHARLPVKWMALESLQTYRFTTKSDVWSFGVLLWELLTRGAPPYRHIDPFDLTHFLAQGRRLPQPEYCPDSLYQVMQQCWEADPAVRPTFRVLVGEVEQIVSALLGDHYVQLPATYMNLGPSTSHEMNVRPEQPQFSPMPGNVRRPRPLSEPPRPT

| Compound | IC50 (MET (human)) [nM] | IC50 (RON (human)) [nM] |
| --- | --- | --- |
| C[C@@H](Oc1c(N)ncc2c(-c3ccc(C(=O)N4CCCC4)cc3)coc12)c1c(Cl)ccc(F)c1Cl [Example 84, (4-{6-Amino-7-[(R)-1-(2,6-dichloro-3-fluorophenyl)ethoxy]-furo[3,2-c]pyridin-3-yl}phenyl)pyrrolidin-1-ylmethanone] | < 500 | 500 to 5000 |
| C[C@@H](Oc1c(N)ncc2c(-c3ccc(CN4CCOCC4)cc3)coc12)c1c(Cl)ccc(F)c1Cl [Example 85, 7-[(R)-1-(2,6-Dichloro-3-fluorophenyl)ethoxy]-3-(4-morpholin-4-ylmethylphenyl)furo[3,2-c]pyridin-6-ylamine] | 500 to 5000 | 500 to 5000 |
| C[C@@H](Oc1c(N)ncc2c(-c3ccc(N4CCN(C)CC4)cc3)coc12)c1c(Cl)ccc(F)c1Cl [Example 86, 7-[(R)-1-(2,6-Dichloro-3-fluor-phenyl)ethoxy]-3-[4-(4-methylpiperazin-1-yl)-phenyl]furo[3,2-c]pyridin-6-ylamine] | < 500 | < 500 |
| C[C@@H](Oc1c(N)ncc2c(-c3cnn(CCN4CCOCC4)c3)coc12)c1c(Cl)ccc(F)c1Cl [Example 87, 7-[(R)-1-(2,6-Dichloro-3-fluorophenyl)ethoxy]-3-[1-(2-morpholin-4-ylethyl)-1H-pyrazol-4-yl]furo[3,2-c]pyridin-6-ylamine] | 500 to 5000 | 500 to 5000 |
| C[C@@H](Oc1c(N)ncc2c(-c3ccc(N4CCN(C)CC4)nc3)coc12)c1c(Cl)ccc(F)c1Cl [Example 88, 7-[(R)-1-(2,6-Dichloro-3-fluorophenyl)ethoxy]-3-[6-(4-methylpiperazin-1-yl)pyridin-3-yl]furo[3,2-c]pyridin-6-ylamine] | < 500 | < 500 |
| C[C@@H](Oc1c(N)ncc2c(-c3ccnc(N4CCN(C)CC4)c3)coc12)c1c(Cl)ccc(F)c1Cl [Example 89, 7-[(R)-1-(2,6-Dichloro-3-fluorophenyl)ethoxy]-3-[2-(4-methylpiperazin-1-yl)pyridin-4-yl]-furo[3,2-c]pyridin-6-ylamine] | < 500 | < 500 |
| C[C@@H](Oc1c(N)ncc2c(-c3cccc(CN)c3)coc12)c1c(Cl)ccc(F)c1Cl [Example 90, 3-(3-Aminomethylphenyl)-7-[(R)-1-(2,6-dichloro-3-fluorophenyl)-ethoxy]furo[3,2-c]pyridin-6-ylamine] | < 500 | 500 to 5000 |
| C[C@@H](Oc1c(N)ncc2c(-c3cccc(CN4CCCCC4)c3)coc12)c1c(Cl)ccc(F)c1Cl [Example 91, 7-[(R)-1-(2,6-Dichloro-3-fluorophenyl)ethoxy]-3-(3-piperidin-1-ylmethylphenyl)furo[3,2-c]pyridin-6-ylamine] | < 500 | < 500 |
| C[C@@H](Oc1c(N)ncc2c(-c3ccnc4ccccc34)coc12)c1c(Cl)ccc(F)c1Cl [Example 92, 7-[(R)-1-(2,6-Dichloro-3-fluorophenyl)ethoxy]-3-quinolin-4-ylfuro[3,2-c]pyridin-6-ylamine] | 500 to 5000 | 5000 to 20000 |
| COc1ncc(-c2coc3c(O[C@H](C)c4c(Cl)ccc(F)c4Cl)c(N)ncc23)cn1 [Example 93, 7-[(R)-1-(2,6-Dichloro-3-fluorophenyl)ethoxy]-3-(2-methoxypyrimidin-5-yl)furo[3,2-c]pyridin-6-ylamine] | 500 to 5000 | 5000 to 20000 |
| C[C@@H](Oc1c(N)ncc2c(-c3cccc(C(=O)N4CCN(C)CC4)c3)coc12)c1c(Cl)ccc(F)c1Cl [Example 94, (3-{6-Amino-7-[(R)-1-(2,6-dichloro-3-fluorophenyl)ethoxy]furo[3,2-c]pyridin-3-yl}phenyl)(4-methylpiperazin-1-yl)methanone] | < 500 | 500 to 5000 |
| Cc1ccc(-c2coc3c(O[C@H](C)c4c(Cl)ccc(F)c4Cl)c(N)ncc23)s1 [Example 95, 7-[(R)-1-(2,6-Dichloro-3-fluorophenyl)ethoxy]-3-(5-methylthiophen-2-yl)furo[3,2-c]pyridin-6-ylamine] | < 500 | < 500 |
| C[C@@H](Oc1c(N)ncc2c(-c3cccc(CN(C)C)c3)coc12)c1c(Cl)ccc(F)c1Cl [Example 96, 7-[(R)-1-(2,6-Dichloro-3-fluorophenyl)ethoxy]-3-(3-dimethyl-aminomethylphenyl)furo[3,2-c]pyridin-6-ylamine] | < 500 | 500 to 5000 |
| C[C@@H](Oc1c(N)ncc2c(-c3cccc(C(=O)NCCN4CCOCC4)c3)coc12)c1c(Cl)ccc(F)c1Cl [Example 97, 3-{6-Amino-7-[(R)-1-(2,6-dichloro-3-fluorophenyl)ethoxy]-furo[3,2-c]pyridin-3-yl}-N-(2-morpholin-4-ylethyl)benzamide] | 500 to 5000 | 500 to 5000 |
| C[C@@H](Oc1c(N)ncc2c(-c3cccc(C(=O)N4CCN(CCO)CC4)c3)coc12)c1c(Cl)ccc(F)c1Cl [Example 98, (3-{6-Amino-7-[(R)-1-(2,6-dichloro-3-fluorophenyl)ethoxy]-furo[3,2-c]pyridin-3-yl}phenyl)-[4-(2-hydroxyethyl)piperazin-1-yl]methanone] | < 500 | 500 to 5000 |
| C[C@@H](Oc1c(N)ncc2c(-c3ccc(C(=O)N4CCN(CCO)CC4)cc3)coc12)c1c(Cl)ccc(F)c1Cl [Example 99, (4-{6-Amino-7-[(R)-1-(2,6-dichloro-3-fluorophenyl)ethoxy]-furo[3,2-c]pyridin-3-yl}phenyl)-[4-(2-hydroxyethyl)piperazin-1-yl]methanone] | < 500 | < 500 |
| C[C@@H](Oc1c(N)ncc2c(-c3ccc(C(=O)NCCN4CCOCC4)cc3)coc12)c1c(Cl)ccc(F)c1Cl [Example 100, 4-{6-Amino-7-[(R)-1-(2,6-dichloro-3-fluorophenyl)ethoxy]-furo[3,2-c]pyridin-3-yl}-N-(2-morpholin-4-ylethyl)benzamide] | 500 to 5000 | 500 to 5000 |
| C[C@@H](Oc1c(N)ncc2c(-c3ccc(C(=O)NCCN4CCCC4)cc3)coc12)c1c(Cl)ccc(F)c1Cl [Example 101, 4-{6-Amino-7-[(R)-1-(2,6-dichloro-3-fluorophenyl)ethoxy]-furo[3,2-c]pyridin-3-yl}-N-(2-pyrrolidin-1-ylethyl)benzamide] | < 500 | 500 to 5000 |
| C[C@@H](Oc1c(N)ncc2c(-c3cccc(C(=O)NCCN4CCCC4)c3)coc12)c1c(Cl)ccc(F)c1Cl [Example 102, 3-{6-Amino-7-[(R)-1-(2,6-dichloro-3-fluorophenyl)ethoxy]-furo[3,2-c]pyridin-3-yl}-N-(2-pyrrolidin-1-ylethyl)benzamide] | < 500 | 500 to 5000 |
| C[C@@H](Oc1c(N)ncc2c(-c3ccc(C(=O)NCCN4CCCCC4)cc3)coc12)c1c(Cl)ccc(F)c1Cl [Example 103, 4-{6-Amino-7-[(R)-1-(2,6-dichloro-3-fluorophenyl)ethoxy]furo[3,2-c]pyridin-3-yl}-N-(2-piperidin-1-ylethyl)benzamide] | < 500 | 500 to 5000 |
| C[C@@H](Oc1c(N)ncc2c(-c3ccc(NCCN4CCOCC4)nc3)coc12)c1c(Cl)ccc(F)c1Cl [Example 104, 7-[(R)-1-(2,6-Dichloro-3-fluorophenyl)ethoxy]-3-[6-(2-morpholin-4-yl-ethylamino)pyridin-3-yl]furo[3,2-c]pyridin-6-ylamine] | < 500 | 500 to 5000 |
| C[C@@H](Oc1c(N)ncc2c(-c3ccc(CN(C)C)cc3)coc12)c1c(Cl)ccc(F)c1Cl [Example 105, 7-[(R)-1-(2,6-Dichloro-3-fluorophenyl)ethoxy]-3-(4-dimethylaminomethylphenyl)-furo[3,2-c]pyridin-6-ylamine] | < 500 | 500 to 5000 |
| C[C@@H](Oc1c(N)ncc2c(-c3ccc(C(=O)N4CCNCC4)cc3)coc12)c1c(Cl)ccc(F)c1Cl [Example 106, (4-{6-Amino-7-[(R)-1-(2,6-dichloro-3-fluorophenyl)ethoxy]furo[3,2-c]pyridin-3-yl}phenyl)piperazin-1-ylmethanone] | < 500 | < 500 |
| C[C@@H](Oc1c(N)ncc2c(-c3ccc(N4CCOCC4)nc3)coc12)c1c(Cl)ccc(F)c1Cl [Example 107, 7-[(R)-1-(2,6-Dichloro-3-fluorophenyl)ethoxy]-3-(6-morpholin-4-ylpyridin-3-yl)-furo[3,2-c]pyridin-6-ylamine] | 500 to 5000 | 500 to 5000 |
| C[C@@H](Oc1c(N)ncc2c(-c3ccc(NC(N)=O)cc3)coc12)c1c(Cl)ccc(F)c1Cl [Example 108, (4-{6-Amino-7-[(R)-1-(2,6-dichloro-3-fluorophenyl)ethoxy]furo[3,2-c]pyridin-3-yl}phenyl)urea] | 500 to 5000 | 500 to 5000 |
| C[C@@H](Oc1c(N)ncc2c(-c3ccc(C(=O)Nc4nccs4)cc3)coc12)c1c(Cl)ccc(F)c1Cl [Example 109, 4-{6-Amino-7-[(R)-1-(2,6-dichloro-3-fluorophenyl)ethoxy]-furo[3,2-c]pyridin-3-yl}-N-thiazol-2-yl-benzamide] | 500 to 5000 | 500 to 5000 |
| C[C@@H](Oc1c(N)ncc2c(-c3ccc(Cn4cccn4)cc3)coc12)c1c(Cl)ccc(F)c1Cl [Example 110, 7-[(R)-1-(2,6-Dichloro-3-fluorophenyl)ethoxy]-3-(4-pyrazol-1-ylmethylphenyl)-furo[3,2-c]pyridin-6-ylamine] | 500 to 5000 | 500 to 5000 |
| Cc1cscc1-c1coc2c(O[C@H](C)c3c(Cl)ccc(F)c3Cl)c(N)ncc12 [Example 111, 7-[(R)-1-(2,6-Dichloro-3-fluorophenyl)ethoxy]-3-(4-methylthiophen-3-yl)furo[3,2-c]pyridin-6-ylamine] | 500 to 5000 | 500 to 5000 |
| C[C@@H](Oc1c(N)ncc2c(-c3cncnc3)coc12)c1c(Cl)ccc(F)c1Cl [Example 112, 7-[(R)-1-(2,6-Dichloro-3-fluorophenyl)ethoxy]-3-pyrimidin-5-ylfuro[3,2-c]pyridin-6-ylamine] | 500 to 5000 | 500 to 5000 |
